Source: ChEMBL document CHEMBL1201862, “PubChem BioAssay data set” (2004)
The source made the active and inactive calls.

How the values were obtained:
[1] = molecular target: T1, Sentrin-specific protease 8 (Homo sapiens, UniProt Q96LD8); type: functional;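 note: luminescence read-out of SENP8 inhibition, dose-response confirmation following an ultra-high-throughput screen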
T1 sequence (Q96LD8 whole entry): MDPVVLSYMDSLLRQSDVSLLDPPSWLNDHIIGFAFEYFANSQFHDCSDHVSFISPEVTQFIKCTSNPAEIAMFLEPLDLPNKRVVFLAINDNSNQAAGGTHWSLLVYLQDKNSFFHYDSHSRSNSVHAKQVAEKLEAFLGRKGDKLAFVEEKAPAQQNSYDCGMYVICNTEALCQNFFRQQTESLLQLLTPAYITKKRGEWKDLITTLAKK

[2] = molecular target: T2, Sentrin-specific protease 6 (Homo sapiens, UniProt Q9GZR1); type: functional;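 note: Luminescence-based dose-response confirmatory assay of SENP6 inhibition, following up an ultra-high-throughput screen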
T2 sequence (Q9GZR1 whole entry): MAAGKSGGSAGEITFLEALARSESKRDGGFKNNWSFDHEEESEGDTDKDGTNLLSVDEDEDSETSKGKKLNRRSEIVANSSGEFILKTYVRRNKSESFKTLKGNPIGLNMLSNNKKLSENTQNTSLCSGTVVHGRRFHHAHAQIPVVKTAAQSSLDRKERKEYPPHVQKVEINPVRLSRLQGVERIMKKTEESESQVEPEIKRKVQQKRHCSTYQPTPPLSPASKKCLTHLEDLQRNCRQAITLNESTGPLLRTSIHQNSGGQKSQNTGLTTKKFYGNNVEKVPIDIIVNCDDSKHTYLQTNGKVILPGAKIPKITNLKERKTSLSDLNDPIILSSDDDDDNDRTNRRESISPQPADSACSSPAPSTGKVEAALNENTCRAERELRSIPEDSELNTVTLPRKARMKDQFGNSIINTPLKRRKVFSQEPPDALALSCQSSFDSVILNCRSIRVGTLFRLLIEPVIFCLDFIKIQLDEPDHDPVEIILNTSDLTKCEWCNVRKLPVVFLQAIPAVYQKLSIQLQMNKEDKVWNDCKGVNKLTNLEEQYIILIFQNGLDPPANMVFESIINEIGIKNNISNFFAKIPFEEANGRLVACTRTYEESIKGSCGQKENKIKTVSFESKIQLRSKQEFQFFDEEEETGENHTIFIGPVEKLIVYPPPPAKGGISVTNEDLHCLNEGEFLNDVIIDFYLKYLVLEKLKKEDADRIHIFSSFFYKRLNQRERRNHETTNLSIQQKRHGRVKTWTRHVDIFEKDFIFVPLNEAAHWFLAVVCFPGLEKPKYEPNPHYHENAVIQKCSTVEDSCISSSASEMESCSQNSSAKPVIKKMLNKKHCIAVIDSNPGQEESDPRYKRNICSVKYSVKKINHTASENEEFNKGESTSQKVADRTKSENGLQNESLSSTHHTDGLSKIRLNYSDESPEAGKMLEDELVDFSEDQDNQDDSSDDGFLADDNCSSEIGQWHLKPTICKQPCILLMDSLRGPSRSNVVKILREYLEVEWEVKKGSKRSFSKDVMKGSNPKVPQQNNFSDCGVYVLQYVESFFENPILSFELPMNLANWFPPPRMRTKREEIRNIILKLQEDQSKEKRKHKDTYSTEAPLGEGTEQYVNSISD

[3] = molecular target: T3, Sentrin-specific protease 7 (Homo sapiens, UniProt Q9BQF6); type: functional;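 note: Luminescence-based dose-response confirmation of ultra-high-throughput screening hits, measuring inhibition of SENP7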
T3 sequence (Q9BQF6 whole entry): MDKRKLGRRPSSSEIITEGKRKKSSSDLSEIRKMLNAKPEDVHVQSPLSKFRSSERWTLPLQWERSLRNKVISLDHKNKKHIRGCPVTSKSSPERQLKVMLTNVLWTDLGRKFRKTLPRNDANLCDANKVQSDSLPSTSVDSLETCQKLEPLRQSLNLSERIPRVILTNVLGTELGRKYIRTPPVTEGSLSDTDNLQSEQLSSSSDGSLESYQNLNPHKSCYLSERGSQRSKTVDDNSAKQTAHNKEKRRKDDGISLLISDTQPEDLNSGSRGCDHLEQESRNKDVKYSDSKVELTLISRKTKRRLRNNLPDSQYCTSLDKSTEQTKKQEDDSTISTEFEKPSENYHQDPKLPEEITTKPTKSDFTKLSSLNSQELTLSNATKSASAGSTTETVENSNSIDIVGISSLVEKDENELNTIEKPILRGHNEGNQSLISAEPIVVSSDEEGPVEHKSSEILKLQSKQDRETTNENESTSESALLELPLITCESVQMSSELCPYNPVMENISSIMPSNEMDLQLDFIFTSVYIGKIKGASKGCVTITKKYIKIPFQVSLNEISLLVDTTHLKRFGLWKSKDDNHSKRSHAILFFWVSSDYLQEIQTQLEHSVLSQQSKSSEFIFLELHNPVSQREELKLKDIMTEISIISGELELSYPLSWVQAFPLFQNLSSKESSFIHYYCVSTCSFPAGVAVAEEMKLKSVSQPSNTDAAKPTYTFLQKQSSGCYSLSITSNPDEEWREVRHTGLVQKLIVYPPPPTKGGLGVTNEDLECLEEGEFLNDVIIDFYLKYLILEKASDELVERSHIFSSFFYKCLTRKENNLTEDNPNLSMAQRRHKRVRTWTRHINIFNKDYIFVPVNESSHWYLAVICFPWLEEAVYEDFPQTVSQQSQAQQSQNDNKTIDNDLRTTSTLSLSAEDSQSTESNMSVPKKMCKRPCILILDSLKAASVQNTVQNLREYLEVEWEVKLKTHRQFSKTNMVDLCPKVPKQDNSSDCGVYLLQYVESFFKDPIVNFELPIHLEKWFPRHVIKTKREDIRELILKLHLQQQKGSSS

Caspase-3 = molecular target: T4, Caspase-3 (Homo sapiens, UniProt P42574); type: functional;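 note: Dose-response selectivity test against caspase-3 for candidate inhibitors of sentrin-specific proteases (SENPs)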
T4 sequence (P42574 whole entry): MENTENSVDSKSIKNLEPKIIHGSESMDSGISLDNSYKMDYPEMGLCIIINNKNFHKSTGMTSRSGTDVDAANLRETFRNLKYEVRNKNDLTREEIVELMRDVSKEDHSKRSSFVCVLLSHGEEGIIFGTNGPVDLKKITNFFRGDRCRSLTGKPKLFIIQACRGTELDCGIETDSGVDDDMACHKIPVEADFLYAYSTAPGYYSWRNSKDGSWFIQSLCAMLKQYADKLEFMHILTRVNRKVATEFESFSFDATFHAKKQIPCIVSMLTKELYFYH

[4] = Luminescence Cell-Based Dose Retest to Confirm Inhibitors of Cancer Stem Cells. [Related pubchem assays (depositor defined):AID2717, AID2721]; type: functional; details: Homo sapiens
[5] = blockade of melanocortin 4 receptor signaling – cell-based, plate reader, cherry pick, counter-screen for LGR2 antagonist project, dose response (AID 743444); type: functional;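 note: transfected HEK 293 cells stimulated with alpha-MSH peptide; potency of inhibitors of the alpha-MSH evoked signal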
[6] = blockers of bursicon-stimulated LGR2 cAMP reporter – cell-based, HEK293, CRE-luciferase reporter, cherry pick, set 2, dose response (AID 743343); type: functional;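 note: transfected cells were stimulated with diluted bursicon conditioned medium after compound addition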
[7] = A549 cell cytotoxicity, dose response, cytotoxicity control, plate reader, cherry-pick, antagonist series (AID 743412); type: functional, cell-based
Paired box protein Pax-8 = Paired box protein Pax-8 (Homo sapiens, UniProt Q06710); test: PAX8 transcriptional activity inhibition in RMG-I – RMG-I cells, luciferase, cherry-pick, dose response (AID 687027); type: functional, cell-based;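 note: luciferase reporter driven by Pax8 target thyroperoxidase promoter measured by SteadyGlo luminescence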
[8] = viability loss in HEK293 cells – cell-based, plate reader, cherry-picked samples, cytotoxicity control, dose response (AID 743446); type: functional
[9] = viability loss in THP-1 monocytes – THP-1 cells, cytotoxicity control for Vif-APOBEC3G degradation inhibitor project, dose response (AID 1117359); type: functional; details: THP-1
[10] = molecular target: Photoreceptor-specific nuclear receptor (Homo sapiens, UniProt Q9Y5X4); type: functional, cell-based;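 note: CHO-S cells with Gal4-NCOR and VP16-NR2E3 two-hybrid luciferase reporter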
HEK293 = test: EBV LMP1 TES2 canonical NF-kB signalling blockers – cell-based, HEK293, luciferase, cherry-pick, dose response (AID 588343); type: functional; details: Homo sapiens
[11] = toxicity toward HepG2 liver cells – cell-based, plate reader, cherry-pick, antagonist series, cytotoxicity control, dose response (AID 743416); type: functional
[12] = blockers of HIV-1 envelope-mediated cell-cell fusion – cherry-pick, dose response (AID 652057); type: functional, cell-based
[13] = off-target signal loss in HeLa-CEM21 co-culture – HeLa F-luc CTL cells, cherry-picked, counter-screen for HIV-1 Env fusion inhibitor project, dose response (AID 652040); type: functional, cell-based;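 note: potency for signal decrease marking cytotoxic or nonspecific inhibition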
[14] = viability loss in CEM21 cells – cell-based, CellTiter-Glo luminescence, cherry-picked, cytotoxicity control for viral fusion inhibitor project, dose response (AID 652042); type: functional;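 note: potency for signal decrease meaning cytotoxicity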
[15] = HIV-1 AD8 envelope cell-cell fusion blockers – cherry-pick, dose response (AID 652062); type: functional, cell-based;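 note: luciferase signal from cell-cell fusion driven by HIV-1 clade B AD8 Env; potency is for inhibitors of fusion seen as a drop in luminescence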
P388 = test: cells; type: functional; details: Mus musculus
SN12K1 = test: cells; type: functional; details: Homo sapiens
P388/ADR = test: cells; type: functional; details: Mus musculus
[16] = blockers of HIV-1 ZM109 envelope-driven cell-cell fusion – HeLa effector, CEM target cells, luciferase, cherry-pick, dose response (AID 652058); type: functional, cell-based;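 note: luciferase signal from HIV-1 Env mediated cell-cell fusion of effector and target cells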
[17] = P. falciparum Dd2 growth inhibitors, dose response, SYBR Green, cherry-picked samples (AID 1159567); type: functional, cell-based
[18] = toxicity to human hepatoma HepG2 cells – cell-based, cherry-picked samples, cytotoxicity control, dose response (AID 1159577); type: functional

Sequence of Paired box protein Pax-8 (Q06710 whole entry): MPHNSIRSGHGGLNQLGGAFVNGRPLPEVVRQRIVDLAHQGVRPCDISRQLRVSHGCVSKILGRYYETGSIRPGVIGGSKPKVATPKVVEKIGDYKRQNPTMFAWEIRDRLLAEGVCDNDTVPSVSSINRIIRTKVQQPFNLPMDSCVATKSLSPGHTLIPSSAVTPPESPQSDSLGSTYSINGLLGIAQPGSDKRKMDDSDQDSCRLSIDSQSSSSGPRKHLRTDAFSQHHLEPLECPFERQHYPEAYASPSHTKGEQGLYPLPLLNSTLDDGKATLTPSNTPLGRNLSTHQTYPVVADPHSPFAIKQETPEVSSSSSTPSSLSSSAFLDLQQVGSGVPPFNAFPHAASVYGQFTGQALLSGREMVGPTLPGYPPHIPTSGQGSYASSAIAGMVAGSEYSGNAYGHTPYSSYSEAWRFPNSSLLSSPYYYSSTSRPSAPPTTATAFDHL
Sequence of Photoreceptor-specific nuclear receptor (Q9Y5X4 whole entry, the tested form may be a part): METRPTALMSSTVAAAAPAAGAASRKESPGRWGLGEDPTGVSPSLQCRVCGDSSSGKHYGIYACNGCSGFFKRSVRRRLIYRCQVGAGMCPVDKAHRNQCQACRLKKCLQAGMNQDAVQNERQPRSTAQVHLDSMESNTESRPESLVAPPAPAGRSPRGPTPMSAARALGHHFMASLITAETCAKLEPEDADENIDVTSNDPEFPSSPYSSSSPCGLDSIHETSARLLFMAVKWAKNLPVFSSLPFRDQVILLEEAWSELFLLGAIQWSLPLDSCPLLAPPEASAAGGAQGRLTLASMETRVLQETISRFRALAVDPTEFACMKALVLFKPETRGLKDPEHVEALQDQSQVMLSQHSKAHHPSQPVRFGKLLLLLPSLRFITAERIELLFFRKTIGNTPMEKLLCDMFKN

CCCCCc1ccc(-c2ccc(OC)cc2)nc1
IC50 [1]: 80.5 µM (active)
IC50 [2]: 41.8 µM (active)
IC50 [3]: 9.32 µM (active)
IC50 (Caspase-3): 37.2 µM (active)

Cn1nnnc1Sc1ncnc2scc(-c3cccc(Br)c3)c12
AC50 [4]: 1.86 µM (active)
AC50 [5]: 6.1 µM (active)
AC50 [6]: 5.22 µM (active)
AC50 [7]: 9.25 µM (active)
AC50 (Paired box protein Pax-8): 2.75 µM (active)
AC50 [8]: 11.1 µM (active)

O=C(Nc1ccc(C2CC2(Cl)Cl)cc1)c1cccc([N+](=O)[O-])c1 (centres undefined)
IC50 [1]: 29.5 µM (active)
IC50 [2]: 7.84 µM (active)
IC50 [3]: 5.14 µM (active)
IC50 (Caspase-3): 28.8 µM (active)

O=C1/C(=C/c2ccco2)SC(=S)N1C1CCS(=O)(=O)C1 (centres undefined)
CC50 [9]: > 40 µM (active)

COCCn1c(C)cc(C(=O)COc2ccc(C)nc2[N+](=O)[O-])c1C
IC50 [10]: 5.55 µM (active)
AC50 (HEK293): 9.91 µM (active)

O=C(NCCSc1ccccc1)c1ccc(Br)cc1
IC50 [1]: 26.8 µM (active)
IC50 [2]: 22.4 µM (active)
IC50 [3]: 7.71 µM (active)
IC50 (Caspase-3): 17.7 µM (active)

O=C(c1cc(-c2ccccc2Cl)nc2ccc(Br)cc12)N1CCN(c2ccccn2)CC1
AC50 [5]: 29.2 µM (active)
AC50 [6]: 28.3 µM (active)
AC50 [7]: 34.5 µM (active)
AC50 [11]: 50.3 µM (active)
AC50 [8]: 22.8 µM (active)

COc1cccc(CN2CCC2(C)C(=O)Nc2cccc(Oc3ccccc3)c2)c1OC (centres undefined)
AC50 [12]: 3.47 µM (active)
AC50 [13]: > 70 µM (inactive)
AC50 [14]: 61.8 µM (active)
AC50 [15]: 20.4 µM (active)

CCCCCCCCCCNC1CC(OC2CC(O)(C(O)CO)Cc3c(O)c4c(c(O)c32)C(=O)c2c(OC)cccc2C4=O)OC(C)C1O (centres undefined)
GI50 (P388): 0.168 µM (active)
GI50 (SN12K1): 1.25 µM (inactive)
GI50 (P388/ADR): 1.52 µM (inactive)

COc1c2ccoc2c(S(=O)(=O)Nc2ccc(Cl)cc2)c2oc(C)cc(=O)c12
GI50 (P388): 69.3 µM (inactive)
GI50 (SN12K1): > 100 µM (inactive)
GI50 (P388/ADR): 72.4 µM (inactive)

O=C(O)CCCCCCC[C@@H]1S[C@H]1CCCCCCO
GI50 (P388): > 100 µM (inactive)
GI50 (SN12K1): > 100 µM (inactive)
GI50 (P388/ADR): > 100 µM (inactive)

CC(C)CC/N=c1/cc2n(-c3ccc(Cl)cc3)c3ccccc3nc-2cc1Nc1ccc(Cl)cc1
GI50 (P388): 2.82 µM (inactive)
GI50 (SN12K1): 6.4 µM (inactive)
GI50 (P388/ADR): 2.19 µM (inactive)

Nc1nc(N)nc(-c2ccccc2NS(=O)(=O)c2ccc([N+](=O)[O-])cc2)n1
GI50 (P388): 57.1 µM (inactive)
GI50 (SN12K1): > 56.5 µM (inactive)
GI50 (P388/ADR): 38.5 µM (inactive)

CCCCCCCCN1C(=O)[C@H](CC(=O)NCCCC)C[C@@]2(C(=O)OCC)CCCC=C12
AC50 [12]: 7.2 µM (active)
AC50 [13]: 66.4 µM (active)
AC50 [16]: 23.2 µM (active)
AC50 [14]: 37.5 µM (active)
AC50 [15]: 16.3 µM (active)

C[C@H]1CN([C@@H](C)CO)C(=O)Cc2cc(NC(=O)Nc3ccc(F)cc3)ccc2O[C@H]1CN(C)CC1CCCCC1
AC50 [5]: 55.8 µM (active)
AC50 [7]: 9.61 µM (active)
AC50 [11]: 16.6 µM (active)
AC50 [8]: 15.4 µM (active)

COc1ccc(/C=N/N2CCN(c3ccccc3OC)CC2)cc1Br
IC50 [1]: 54.9 µM (active)
IC50 [2]: 25 µM (active)
IC50 [3]: 7.1 µM (active)
IC50 (Caspase-3): 21.1 µM (active)

O=S(=O)(c1ccc(F)cc1)N1CCCCN2[C@H](CO)[C@H](c3ccc(-c4ccccc4F)cc3)[C@H]2C1
AC50 [17]: 1.97 µM (active)
AC50 [18]: 11 µM (active)

Cc1cccc(-c2ccc([C@H]3[C@H]4CN(CCC(F)(F)F)CCCCN4[C@H]3CO)cc2)c1
AC50 [17]: 1.08 µM (active)
AC50 [18]: 9.1 µM (active)

C[C@H](CO)N1C[C@H](C)[C@@H](CN(C)Cc2ccccc2)Oc2ccc(NC(=O)Nc3ccc(F)cc3)cc2CC1=O
AC50 [17]: 4.02 µM (active)
AC50 [18]: > 39 µM (inactive)

CCCCCCCCCCCCCCCC(=O)OCC1OC(n2ccc(N)nc2=O)C(O)C1O (centres undefined)
AC50 [12]: 0.557 µM (active)
AC50 [13]: 0.44 µM (active)
AC50 [16]: < 0.26 µM (active)
AC50 [14]: 24 µM (active)
AC50 [15]: 0.922 µM (active)
